The source made the active and inactive calls. The rule behind the calls is not given here.
Key:
[1] = tested on: MDA-MB-231; assay: Antiproliferative activity against human MDA-MB-231 cells assessed as reduction in cell viability preincubated with N-(4-((6,7-dimethoxyquinazolin-4-yl)oxy)-3-fluorophenyl)-6-ethyl-1,2-dimethyl-4-oxo-1,4-dihydroquinoline-3-carboxamide for 6 hrs followed by compound treatment and measured after 24 hrs by CCK8 assay; assay type: functional, cell-based
[2] = tested on: MDA-MB-231; assay: Antitumor activity against human MDA-MB-231 cells xenografted in Balb/c nude mouse assessed as tumor growth inhibition at 10 mg/kg, ip administered for 22 days and measured 24 hrs post last dose relative to control; assay type: functional; details: MDA-MB-231, 552 h, time 23 day, read-out: TGI

Q: What does the source list for `CCc1ccc2c(c1)c(=O)c(C(=O)Nc1ccc(Oc3ncnc4cc(OCCCCCC(=O)Nc5ccc6c(c5)CN(C5CCC(=O)NC5=O)C6=O)c(OC)cc34)c(F)c1)c(C)n2C` (configuration not stated)?
A: Activity [1]: inactive; inhibition in vivo at 10 mg/kg [2]: 40.9%

From ChEMBL document CHEMBL5316328, “Discovery of AXL Degraders with Improved Potencies in Triple-Negative Breast Cancer (TNBC) Cells” (J Med Chem, 2023)
